ChEMBL document CHEMBL5126529, “Drug discovery of histone lysine demethylases (KDMs) inhibitors (progress from 2018 to present)” (Eur J Med Chem, 2022)

What was measured:
[1] = molecular target: T1, Lysine-specific demethylase 5A (Homo sapiens, UniProt P29375); assay: Inhibition of full-length human KDM5A expressed in recombinant baculovirus expression system using […] peptide as substrate incubated for 30 to 45 mins by TR-FRET assay; parameters: species or system Sf9
[2] = molecular target: T2, Lysine-specific demethylase 4A (Homo sapiens, UniProt O75164); assay: Inhibition of KDM4A (unknown origin) incubated for 30 mins by fluorescence based assay
T2 sequence (O75164 whole entry): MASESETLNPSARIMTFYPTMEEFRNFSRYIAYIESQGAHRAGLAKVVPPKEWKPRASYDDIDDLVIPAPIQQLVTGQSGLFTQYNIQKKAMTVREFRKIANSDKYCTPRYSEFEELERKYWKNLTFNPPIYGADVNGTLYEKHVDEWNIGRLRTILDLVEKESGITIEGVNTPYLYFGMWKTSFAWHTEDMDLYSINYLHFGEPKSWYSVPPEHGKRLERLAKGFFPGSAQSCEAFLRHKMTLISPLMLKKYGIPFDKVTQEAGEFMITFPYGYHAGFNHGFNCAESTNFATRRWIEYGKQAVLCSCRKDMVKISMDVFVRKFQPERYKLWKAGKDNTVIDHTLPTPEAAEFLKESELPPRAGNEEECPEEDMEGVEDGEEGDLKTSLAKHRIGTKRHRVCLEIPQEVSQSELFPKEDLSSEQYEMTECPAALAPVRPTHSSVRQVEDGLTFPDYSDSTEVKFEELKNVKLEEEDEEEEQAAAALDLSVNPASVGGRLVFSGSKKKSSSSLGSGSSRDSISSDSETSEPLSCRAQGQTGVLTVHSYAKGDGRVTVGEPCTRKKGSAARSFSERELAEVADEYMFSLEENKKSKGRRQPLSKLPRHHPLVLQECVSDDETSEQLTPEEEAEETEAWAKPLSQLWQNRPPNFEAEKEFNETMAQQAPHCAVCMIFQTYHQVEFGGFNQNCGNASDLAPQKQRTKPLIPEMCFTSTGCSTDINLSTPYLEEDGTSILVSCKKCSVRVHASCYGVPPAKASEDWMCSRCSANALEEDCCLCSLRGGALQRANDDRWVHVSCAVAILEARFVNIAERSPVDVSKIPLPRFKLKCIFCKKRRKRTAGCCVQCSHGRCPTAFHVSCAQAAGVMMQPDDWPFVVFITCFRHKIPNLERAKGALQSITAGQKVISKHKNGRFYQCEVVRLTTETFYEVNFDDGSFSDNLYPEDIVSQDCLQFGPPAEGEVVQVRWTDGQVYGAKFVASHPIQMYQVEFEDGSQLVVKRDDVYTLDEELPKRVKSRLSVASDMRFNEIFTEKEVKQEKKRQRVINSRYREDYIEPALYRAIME

[3] = molecular target: T2, Lysine-specific demethylase 4A; assay: Inhibition of KDM4A (1 to 359 residues) (unknown origin) using ARTKQTARK(me3)-STGGKAPRKQLA-GGK(biotin) peptide as substrate preincubated for 10 mins followed by substrate addition measured after 45 mins by LANCE Ultra assay
[4] = molecular target: T1, Lysine-specific demethylase 5A; assay: Inhibition of full-length KDM5A ([…])(unknown origin) using ARTK(me3)-QTARKSTGGKAPRKQLA-GGK(biotin) as substrate preincubated for 10 mins followed by substrate addition measured after 45 mins by LANCE Ultra assay
[5] = molecular target: Lysine-specific demethylase 6B (Homo sapiens, UniProt O15054); assay: Inhibition of KDM6B (1043 to end residues) (unknown origin) using ATKAARK(me3)-SAPATGGVKKPHRYRPG-GK(biotin) as substrate preincubated for 10 mins followed by substrate addition measured after 45 mins by LANCE Ultra assay
[6] = molecular target: Lysine-specific demethylase 5C (Homo sapiens, UniProt P41229); assay: Inhibition of N-terminal FLAG/His-tagged full-length human KDM5C (2 to 1560 residues) expressed in baculovirus infected Sf9 insect cells using peptide substrate incubated for 2 hrs by Alpha Screen assay
[7] = molecular target: Lysine-specific demethylase 2A (Homo sapiens, UniProt Q9Y2K7); assay: Inhibition of KDM2A (unknown origin)
Chain of Lysine-specific demethylase 2A (Q9Y2K7 whole entry): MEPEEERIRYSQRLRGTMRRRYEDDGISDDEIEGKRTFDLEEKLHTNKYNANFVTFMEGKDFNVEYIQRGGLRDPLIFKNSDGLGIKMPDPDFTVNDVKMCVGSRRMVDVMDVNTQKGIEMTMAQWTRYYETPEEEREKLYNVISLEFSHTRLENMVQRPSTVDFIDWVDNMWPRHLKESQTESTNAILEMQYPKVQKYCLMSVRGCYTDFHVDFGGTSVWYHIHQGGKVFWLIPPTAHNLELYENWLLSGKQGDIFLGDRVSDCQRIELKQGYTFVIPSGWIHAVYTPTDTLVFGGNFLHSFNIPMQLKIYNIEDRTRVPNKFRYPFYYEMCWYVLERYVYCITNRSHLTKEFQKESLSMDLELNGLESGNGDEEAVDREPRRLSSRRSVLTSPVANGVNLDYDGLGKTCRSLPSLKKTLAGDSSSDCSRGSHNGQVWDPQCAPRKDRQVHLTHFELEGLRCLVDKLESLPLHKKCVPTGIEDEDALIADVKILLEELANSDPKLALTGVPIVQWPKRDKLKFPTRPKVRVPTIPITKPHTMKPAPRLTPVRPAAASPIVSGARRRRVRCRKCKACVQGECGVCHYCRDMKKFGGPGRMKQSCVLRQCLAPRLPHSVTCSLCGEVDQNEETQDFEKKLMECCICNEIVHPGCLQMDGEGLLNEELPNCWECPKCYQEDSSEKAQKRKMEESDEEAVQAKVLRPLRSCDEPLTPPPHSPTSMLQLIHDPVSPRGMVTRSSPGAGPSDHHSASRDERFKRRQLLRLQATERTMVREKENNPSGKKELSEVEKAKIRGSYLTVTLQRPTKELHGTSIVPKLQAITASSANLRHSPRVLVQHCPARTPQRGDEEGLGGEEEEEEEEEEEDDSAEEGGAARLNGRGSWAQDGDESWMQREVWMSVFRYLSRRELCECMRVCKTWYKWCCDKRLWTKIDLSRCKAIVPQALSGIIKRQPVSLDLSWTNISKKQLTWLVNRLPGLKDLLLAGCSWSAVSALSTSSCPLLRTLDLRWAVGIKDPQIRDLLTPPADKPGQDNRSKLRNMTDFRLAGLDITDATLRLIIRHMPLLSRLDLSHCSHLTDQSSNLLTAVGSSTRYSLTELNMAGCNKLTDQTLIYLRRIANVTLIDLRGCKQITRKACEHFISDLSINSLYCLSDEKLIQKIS

[8] = molecular target: Lysine-specific demethylase 2B (Homo sapiens, UniProt Q8NHM5); assay: Inhibition of KDM2B (unknown origin)
Chain of Lysine-specific demethylase 2B (Q8NHM5 whole entry): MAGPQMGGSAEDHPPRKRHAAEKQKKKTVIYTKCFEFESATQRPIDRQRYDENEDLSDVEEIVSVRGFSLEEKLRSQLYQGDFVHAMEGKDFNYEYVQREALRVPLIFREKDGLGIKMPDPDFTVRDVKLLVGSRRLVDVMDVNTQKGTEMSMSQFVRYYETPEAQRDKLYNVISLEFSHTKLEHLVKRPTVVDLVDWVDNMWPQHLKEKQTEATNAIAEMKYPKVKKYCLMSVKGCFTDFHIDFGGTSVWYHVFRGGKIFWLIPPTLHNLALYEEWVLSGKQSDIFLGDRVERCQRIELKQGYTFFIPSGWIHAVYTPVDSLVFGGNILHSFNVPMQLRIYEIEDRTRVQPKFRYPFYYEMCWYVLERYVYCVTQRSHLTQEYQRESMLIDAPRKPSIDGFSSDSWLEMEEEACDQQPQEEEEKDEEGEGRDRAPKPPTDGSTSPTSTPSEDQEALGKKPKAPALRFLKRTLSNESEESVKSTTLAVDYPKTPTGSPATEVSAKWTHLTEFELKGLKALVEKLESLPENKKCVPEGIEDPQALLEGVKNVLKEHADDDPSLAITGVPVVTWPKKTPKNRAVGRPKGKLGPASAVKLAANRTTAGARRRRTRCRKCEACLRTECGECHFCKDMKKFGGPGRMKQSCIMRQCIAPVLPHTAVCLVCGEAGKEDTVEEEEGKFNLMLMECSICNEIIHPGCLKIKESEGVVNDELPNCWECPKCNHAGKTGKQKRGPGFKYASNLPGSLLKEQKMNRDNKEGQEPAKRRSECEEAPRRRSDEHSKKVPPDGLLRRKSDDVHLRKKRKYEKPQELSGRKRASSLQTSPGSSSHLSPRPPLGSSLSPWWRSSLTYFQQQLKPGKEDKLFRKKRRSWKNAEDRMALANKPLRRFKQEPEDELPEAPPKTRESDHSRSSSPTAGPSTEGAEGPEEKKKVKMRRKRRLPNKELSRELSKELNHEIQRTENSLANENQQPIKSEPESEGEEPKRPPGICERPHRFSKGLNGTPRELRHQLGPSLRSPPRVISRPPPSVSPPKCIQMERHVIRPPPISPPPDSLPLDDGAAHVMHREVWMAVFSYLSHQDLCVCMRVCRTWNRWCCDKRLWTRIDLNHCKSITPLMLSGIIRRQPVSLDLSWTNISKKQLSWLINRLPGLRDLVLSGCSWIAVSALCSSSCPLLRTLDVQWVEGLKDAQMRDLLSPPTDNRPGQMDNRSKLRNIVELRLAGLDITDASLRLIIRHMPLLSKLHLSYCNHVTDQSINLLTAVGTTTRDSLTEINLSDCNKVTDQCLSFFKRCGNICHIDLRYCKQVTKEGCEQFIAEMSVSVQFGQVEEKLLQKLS

T1 sequence (P29375 whole entry): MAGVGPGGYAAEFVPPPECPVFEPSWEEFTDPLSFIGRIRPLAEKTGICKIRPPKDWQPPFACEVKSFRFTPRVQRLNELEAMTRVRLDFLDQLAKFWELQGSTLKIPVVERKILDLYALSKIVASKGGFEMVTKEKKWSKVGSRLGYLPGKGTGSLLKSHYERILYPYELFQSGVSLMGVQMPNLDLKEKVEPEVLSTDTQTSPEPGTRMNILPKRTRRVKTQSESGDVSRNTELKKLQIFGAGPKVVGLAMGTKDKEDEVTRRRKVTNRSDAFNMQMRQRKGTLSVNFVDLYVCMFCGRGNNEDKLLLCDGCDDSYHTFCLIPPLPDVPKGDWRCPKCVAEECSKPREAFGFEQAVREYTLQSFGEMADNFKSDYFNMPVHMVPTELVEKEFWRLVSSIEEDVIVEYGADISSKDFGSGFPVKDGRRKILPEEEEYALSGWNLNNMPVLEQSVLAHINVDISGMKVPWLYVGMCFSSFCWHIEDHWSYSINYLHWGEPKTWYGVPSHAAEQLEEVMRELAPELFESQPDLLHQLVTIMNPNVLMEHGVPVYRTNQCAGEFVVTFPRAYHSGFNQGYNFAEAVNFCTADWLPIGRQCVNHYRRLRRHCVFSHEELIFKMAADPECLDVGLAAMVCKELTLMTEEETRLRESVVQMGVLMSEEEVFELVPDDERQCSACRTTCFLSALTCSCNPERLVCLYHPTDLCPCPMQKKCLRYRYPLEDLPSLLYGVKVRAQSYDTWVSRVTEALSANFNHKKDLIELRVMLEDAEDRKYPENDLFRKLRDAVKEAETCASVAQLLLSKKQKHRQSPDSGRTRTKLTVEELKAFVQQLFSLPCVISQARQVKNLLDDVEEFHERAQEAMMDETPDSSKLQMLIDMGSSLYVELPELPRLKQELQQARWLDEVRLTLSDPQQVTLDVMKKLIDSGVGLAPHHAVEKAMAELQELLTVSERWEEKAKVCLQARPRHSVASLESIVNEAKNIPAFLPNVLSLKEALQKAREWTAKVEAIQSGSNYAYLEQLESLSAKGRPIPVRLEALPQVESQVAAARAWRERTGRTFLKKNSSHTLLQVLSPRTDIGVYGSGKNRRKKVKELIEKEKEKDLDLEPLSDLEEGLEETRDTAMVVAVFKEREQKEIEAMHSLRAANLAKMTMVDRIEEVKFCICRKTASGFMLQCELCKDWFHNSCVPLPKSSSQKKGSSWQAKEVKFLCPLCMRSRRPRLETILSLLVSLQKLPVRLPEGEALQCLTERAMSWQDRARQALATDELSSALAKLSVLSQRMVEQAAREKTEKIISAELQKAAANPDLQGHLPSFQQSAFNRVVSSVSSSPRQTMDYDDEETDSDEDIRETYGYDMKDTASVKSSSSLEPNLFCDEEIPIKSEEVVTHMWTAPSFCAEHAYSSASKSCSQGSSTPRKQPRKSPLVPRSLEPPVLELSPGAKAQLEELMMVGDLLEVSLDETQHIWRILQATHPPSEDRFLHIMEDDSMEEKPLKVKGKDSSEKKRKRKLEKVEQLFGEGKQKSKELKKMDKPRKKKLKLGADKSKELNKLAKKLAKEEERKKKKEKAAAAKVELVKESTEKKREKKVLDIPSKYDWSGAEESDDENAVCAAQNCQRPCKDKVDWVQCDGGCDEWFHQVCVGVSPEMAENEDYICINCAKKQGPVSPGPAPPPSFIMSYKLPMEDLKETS

Question: Which results are given for `Cc1cc(O[C@H](C)C(=O)NCC(=O)NCC(=O)O)c2c3c(c(=O)oc2c1)CCC3`?
Answer: IC50 [1]: 0.0238 µM; IC50 [2]: > 100 µM

Question: For `O=C(O)c1ccc(-n2nc(-c3ccccc3O)nc2-c2ccccc2O)cc1` [DEFERASIROX], which IC50 [3] is on record?
Answer: 4.76 µM

Question: And the IC50 [4]?
Answer: 5 µM

Question: And the IC50 [5]?
Answer: 3.95 µM

Question: `CCCCCCN(C)CCn1cc(-c2cc(C(=O)O)ccn2)nn1` was tested. Which IC50 [6] did it give?
Answer: 0.0088 µM

Question: Which results are given for `Cc1c(O)c(=O)ccn1C` [DEFERIPRONE]?
Answer: IC50 [7]: 6.8 µM; IC50 [8]: 8.1 µM
